Measurements from paper PMC7948422, “Repurposing p97 inhibitors for chemical modulation of the bacterial ClpB–DnaK bichaperone system” (The Journal of Biological Chemistry, 2020).
Several values for one entry are separate records, joined by “and”; a condition that tells them apart may be missing. Identical values can stand only once.

Tests used:
wt ClpB = molecular target: T1, wt ClpB (Escherichia coli, UniProt P63284); assay: Surface plasmon resonance, immobilized wt ClpB; type: binding
T1 construct: made in house
Protocol: (§1) ClpB, DnaK, and the NBD of DnaK were extensively dialyzed against the SPR buffer (20-mM Hepes, pH 7.4, 150-mM NaCl, 20-mM MgCl2, 1-mM EDTA, 1-mM DTT). After dialysis, the protein concentration was determined by the Bradford method. The DBeQ–protein interactions were studied using a Biacore T200 instrument (GE Healthcare) at 25 °C. The proteins were diluted to 300 μg/ml in 10-mM sodium acetate buffer (pH 5 for ClpB DnaK or pH 4 for NBD) and immobilized on HC1500M sensor chips (Xantec) by standard amine coupling chemistry as described previously ([70]). A reference flow cell was created by ethyl(dimethylaminopropyl) carbodiimide/N-hydroxysuccinimide activation followed by quenching with 1 M ethanolamine (pH 9.0). Solvent correction curves were obtained at the beginning and end and after every 50 injection cycles by injecting varying DMSO concentrations (4.0, 4.4, 4.6, 4.8, 5.0, 5.2, 5.4, and 5.9% [v/v]). All experiments were performed using a flow rate of 30 μl/min.
Binding isotherms were obtained with the ligand diluted to different concentrations in the SPR running buffer HBSMTD (20-mM Hepes, pH 7.4, 140-mM NaCl, 20-mM MgCl2, 5% (v/v) DMSO, 0.005% (v/v) Tween-20). Replicate injections were performed for all samples, and a buffer-only injection was performed for every 12 injection cycles. To test the structural integrity of ClpB after immobilization on the sensor chips, we performed control titrations with ATPγS and adenosine. The dissociation constants determined from those experiments were ∼20 μM for ATPγS and ∼2 mM for adenosine. […] Moreover, the immobilized ClpB discriminated between a nucleotide analog and a nucleoside, which indicated an adequate structural integrity of ClpB on the sensor chips.
The resulting sensorgrams were analyzed using Biacore T200 Evaluation Software v3.0 according to the following procedure. Solvent correction curves were generated and applied to all data sets, and all sensorgrams were double-referenced by subtracting the most recent buffer blank injection. The signal immediately before injection stop of these corrected sensorgrams was treated as the binding response. GraphPad Prism was used for nonlinear least-squares fitting of the model assuming either noncooperative or cooperative binding of DBeQ to DnaK and ClpB, respectively.

DnaK NBD = molecular target: T2, DnaK NBD (Escherichia coli, UniProt P0A6Y8); assay: Surface plasmon resonance, immobilized DnaK NBD; type: binding
T2 construct: the NBD of E. coli DnaK (residues 1–388); His-tag (pET28a) (C); made in house; host or cells: E. coli BL21(DE3)
Protocol: as §1, with “All experiments were performed using a flow rate of 30 μl/min.” left out
Binding isotherms were obtained with the ligand diluted to different concentrations in the SPR running buffer HBSMTD (20-mM Hepes, pH 7.4, 140-mM NaCl, 20-mM MgCl2, 5% (v/v) DMSO, 0.005% (v/v) Tween-20). […] The dissociation constants determined from those experiments were ∼20 μM for ATPγS and ∼2 mM for adenosine. […]
The resulting sensorgrams were analyzed using Biacore T200 Evaluation Software v3.0 according to the following procedure. […]

DnaK–DnaJ–GrpE (KJE) = molecular target: T3, DnaK–DnaJ–GrpE (KJE) (Escherichia coli, UniProt P0A6Y8); assay: Aggregate reactivation assay with KJE alone; type: biochemical
T3 construct: full-length E. coli DnaK (residues 1–638); made in house; host or cells: E. coli BL21(DE3) for DnaK
Protocol: G6PDH was chemically denatured by mixing 5 μl of the G6PDH stock solution (441 μM) with 5 μl of buffer A (10 M urea, 16% glycerol, 40-mM DTT) preheated at 47 °C. The samples of G6PDH in buffer A were incubated for 5 min at 47 °C. Subsequently, 5 μl of denatured G6PDH was mixed with 95 μl of buffer B (50-mM Tris-HCl, pH 7.4, 20-mM Mg(OAc)2, 30-mM KCl, 1-mM EDTA, 1-mM β-mercaptoethanol) preheated at 47 °C to initiate protein refolding, which, under these conditions, is inefficient and leads to misfolding and aggregation of G6PDH ([69]). G6PDH aggregate production was arrested after 1 min (for refolding by KJE) or 15 min (for refolding by KJE with ClpB) by transferring into ice for 2 min. […] The plate was inserted into Synergy H1 plate reader (BioTek, Winooski, VT) with the chamber temperature at 30 °C, and the sample absorbance at 340 nm was measured after 10 min. The amount of NADPH produced was calculated based on the NADPH molar extinction coefficient, Ɛ340 = 6220 [M^−1 ⋅ cm^−1].
Firefly luciferase (220 μM) was diluted 300-fold in PBS buffer with 1 mg/ml bovine serum albumin and then incubated for 12 min at 45 °C. […] Luminescence was measured using Synergy H1 plate reader (BioTek, Winooski, VT).

T1 sequence (P63284 whole entry): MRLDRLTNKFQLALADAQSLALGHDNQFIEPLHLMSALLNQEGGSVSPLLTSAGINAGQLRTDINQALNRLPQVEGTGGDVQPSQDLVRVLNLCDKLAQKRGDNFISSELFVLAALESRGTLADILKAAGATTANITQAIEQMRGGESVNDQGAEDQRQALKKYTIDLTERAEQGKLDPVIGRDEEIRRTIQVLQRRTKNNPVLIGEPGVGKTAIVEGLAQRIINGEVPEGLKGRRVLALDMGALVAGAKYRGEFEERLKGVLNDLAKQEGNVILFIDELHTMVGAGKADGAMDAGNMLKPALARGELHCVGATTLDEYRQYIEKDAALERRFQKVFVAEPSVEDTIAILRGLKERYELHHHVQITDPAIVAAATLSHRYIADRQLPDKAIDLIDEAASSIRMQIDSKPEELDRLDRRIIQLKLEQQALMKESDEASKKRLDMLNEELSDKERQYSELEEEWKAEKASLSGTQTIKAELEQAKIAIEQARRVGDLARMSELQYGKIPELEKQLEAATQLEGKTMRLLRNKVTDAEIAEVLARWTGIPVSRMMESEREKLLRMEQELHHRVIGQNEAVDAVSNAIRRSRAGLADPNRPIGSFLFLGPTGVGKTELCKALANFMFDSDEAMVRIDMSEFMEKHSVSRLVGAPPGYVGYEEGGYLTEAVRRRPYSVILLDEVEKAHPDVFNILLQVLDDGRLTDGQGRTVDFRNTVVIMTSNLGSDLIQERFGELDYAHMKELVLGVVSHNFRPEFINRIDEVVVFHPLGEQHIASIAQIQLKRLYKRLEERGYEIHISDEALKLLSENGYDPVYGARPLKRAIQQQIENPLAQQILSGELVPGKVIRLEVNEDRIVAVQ
T2 sequence (P0A6Y8 1-388): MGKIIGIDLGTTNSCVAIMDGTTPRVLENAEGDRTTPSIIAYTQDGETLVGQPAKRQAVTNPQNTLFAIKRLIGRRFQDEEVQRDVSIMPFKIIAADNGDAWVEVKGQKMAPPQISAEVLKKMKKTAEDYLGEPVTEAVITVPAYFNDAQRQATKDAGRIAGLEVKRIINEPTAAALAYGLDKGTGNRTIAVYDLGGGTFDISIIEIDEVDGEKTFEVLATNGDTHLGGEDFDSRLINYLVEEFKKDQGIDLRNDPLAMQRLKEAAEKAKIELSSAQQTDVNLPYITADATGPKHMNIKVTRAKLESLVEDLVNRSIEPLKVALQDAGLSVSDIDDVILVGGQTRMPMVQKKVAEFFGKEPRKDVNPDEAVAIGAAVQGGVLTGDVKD
T3 sequence (P0A6Y8 whole entry, the tested form may be a part): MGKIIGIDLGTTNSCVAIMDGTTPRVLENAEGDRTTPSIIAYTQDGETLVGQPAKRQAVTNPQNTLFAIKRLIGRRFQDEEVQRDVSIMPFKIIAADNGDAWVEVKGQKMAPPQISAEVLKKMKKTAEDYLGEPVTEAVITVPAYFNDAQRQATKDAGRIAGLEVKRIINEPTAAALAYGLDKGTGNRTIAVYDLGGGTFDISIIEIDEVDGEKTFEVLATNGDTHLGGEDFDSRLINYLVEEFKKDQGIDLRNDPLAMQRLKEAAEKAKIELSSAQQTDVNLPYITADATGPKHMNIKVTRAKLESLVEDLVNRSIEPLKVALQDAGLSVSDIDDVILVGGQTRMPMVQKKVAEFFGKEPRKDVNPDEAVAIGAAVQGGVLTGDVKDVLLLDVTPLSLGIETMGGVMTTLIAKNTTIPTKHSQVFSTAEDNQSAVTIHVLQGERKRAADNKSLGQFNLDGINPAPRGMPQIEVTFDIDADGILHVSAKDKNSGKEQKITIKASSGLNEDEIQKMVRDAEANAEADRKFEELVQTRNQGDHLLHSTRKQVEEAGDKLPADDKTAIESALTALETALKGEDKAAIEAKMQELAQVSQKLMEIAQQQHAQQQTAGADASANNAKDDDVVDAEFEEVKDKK

## c1ccc(CNc2nc(NCc3ccccc3)c3ccccc3n2)cc1 [DBeQ, N^2,N^4-dibenzylquinazoline-2,4-diamine]
Wt ClpB
  Bmax (SPR signal at saturation), ClpB: 1.09 ± 0.02
Wt ClpB; SPR, cooperative binding model
  Hill coefficient, DBeQ binding to ClpB: 2.3 ± 0.3 and ~2.3 and > 2
Wt ClpB; apparent Kd, DBeQ binding to ClpB, SPR, 25 °C, cooperative binding model
  Kd: 64.4 µM and ~60 µM
DnaK NBD
  Kd: 95 ± 16 µM
DnaK NBD; SPR
  Bmax (SPR signal at saturation), DnaK NBD: 1.98 ± 0.20
DnaK–DnaJ–GrpE (KJE)
  inhibition of DnaK chaperone activity in vitro: inhibited
DnaK–DnaJ–GrpE (KJE); KJE alone, 20 min, 25 °C
  inhibition of ClpB-independent reactivation of aggregated luciferase: inhibited
